In patent publication US9174974B2, “Macrocyclic factor VIIa inhibitors” (BRISTOL-MYERS SQUIBB COMPANY, priority 2012, dated 2015):

What was measured:
human FVIIa = human FVIIa (Homo sapiens (Human), UniProt P08709); test: FVIIa Ki (37° C.), FVIIa-Xase assay; assay type: biochemical; settings: for Ki: read-out: FVIIa Ki, nM 37° C.; for Ki(HK1)/Ki(FVIIa): selectivity ratio, tissue kallikrein (HK1) vs FVIIa
tissue kallikrein (HK1) = tissue kallikrein (HK1) (Homo sapiens (Human), UniProt P06870); test: Tissue kallikrein-1 (HK1) Ki, fluorogenic substrate assay; assay type: biochemical; settings: 37° C.
tissue kallikrein (HK1), sequence (P06870 25-262): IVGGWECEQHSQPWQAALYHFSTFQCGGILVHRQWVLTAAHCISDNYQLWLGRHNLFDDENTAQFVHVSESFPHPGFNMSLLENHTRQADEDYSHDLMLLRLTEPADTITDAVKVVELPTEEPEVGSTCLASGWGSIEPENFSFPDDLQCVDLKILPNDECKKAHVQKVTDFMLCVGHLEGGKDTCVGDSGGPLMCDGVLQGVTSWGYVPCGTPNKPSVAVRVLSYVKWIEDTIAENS

human FVIIa, sequence (P08709 61-212): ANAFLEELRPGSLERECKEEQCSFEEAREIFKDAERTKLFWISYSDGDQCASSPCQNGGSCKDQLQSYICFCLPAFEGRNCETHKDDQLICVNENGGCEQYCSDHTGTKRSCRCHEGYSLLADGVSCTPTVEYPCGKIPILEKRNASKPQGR
human FVIIa, sequence (P08709 213-466): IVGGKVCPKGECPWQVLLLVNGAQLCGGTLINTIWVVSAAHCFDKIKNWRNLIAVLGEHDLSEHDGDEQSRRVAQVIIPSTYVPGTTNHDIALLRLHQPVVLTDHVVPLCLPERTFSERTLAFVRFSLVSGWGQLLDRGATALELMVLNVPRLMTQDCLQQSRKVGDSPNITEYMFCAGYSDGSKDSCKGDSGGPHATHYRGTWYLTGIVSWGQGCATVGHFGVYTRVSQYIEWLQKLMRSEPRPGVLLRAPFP
human FVIIa, sequence (P13726 33-295 partner): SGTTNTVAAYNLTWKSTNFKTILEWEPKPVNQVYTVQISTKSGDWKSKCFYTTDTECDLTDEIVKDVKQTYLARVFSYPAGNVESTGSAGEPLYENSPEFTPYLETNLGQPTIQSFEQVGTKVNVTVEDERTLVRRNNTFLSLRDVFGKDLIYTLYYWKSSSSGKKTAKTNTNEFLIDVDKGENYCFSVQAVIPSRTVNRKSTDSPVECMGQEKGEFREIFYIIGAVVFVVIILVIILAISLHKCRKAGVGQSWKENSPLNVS

Row | Compound | Ki (human FVIIa) | Ki(HK1)/Ki(FVIIa) (human FVIIa) | Ki (tissue kallikrein (HK1))
1 | Cc1cc2ccc1[C@@H](C)COC(=O)Nc1cc(F)c(S(=O)(=O)C3CC3)c(c1)CN(C)C(=O)[C@@H]2Nc1cc(F)c2c(N)nccc2c1.O=C(O)C(F)(F)F [Example 11, (2R,15R)-2-[(1-Amino-8-fluoroisoquinolin-6-yl)amino]-7-(cyclopropanesulfonyl)-8-fluoro-4,15,17-trimethyl-13-oxa-4,11-diazatricyclo[14.2.2.1^6,10]henicosa-1(18),6,8,10 (21),16,19-hexaene-3,12-dione; trifluoroacetic acid] | 0.66 nM | 145 | 96 nM
2 | CCS(=O)(=O)c1ccc2cc1CN(C)C(=O)[C@H](Nc1ccc3c(N)ncc(F)c3c1)c1ccc(c(C)c1)[C@@H](C)COC(=O)N2.O=C(O)C(F)(F)F [Example 3, (2R,15R)-2-[(1-Amino-4-fluoroisoquinolin-6-yl)amino]-7-(ethanesulfonyl)-4,15,17-trimethyl-13-oxa-4,11-diazatricyclo[14.2.2.1^6,10]henicosa-1(18),6,8,10 (21),16,19-hexaene-3,12-dione; trifluoroacetic acid] | 2.3 nM | 117 | 270 nM
3 | Cc1cc2ccc1[C@@H](C)COC(=O)Nc1ccc([C@@H](CC(F)F)C(=O)O)c(c1)CN(C)C(=O)[C@@H]2Nc1ccc2c(N)ncc(F)c2c1.O=C(O)C(F)(F)F [Example 10, (2R)-2-[(2R,15R)-2-[(1-Amino-4-fluoroisoquinolin-6-yl)amino]-4,15,17-trimethyl-3,12-dioxo-13-oxa-4,11-diazatricyclo[14.2.2.1^6,10]henicosa-1(18),6,8,10 (21),16,19-hexaen-7-yl]-4,4-difluorobutanoic acid; trifluoroacetic acid] | 0.9 nM | 356 | 320 nM
4 | COC[C@H](C)S(=O)(=O)c1ccc2cc1CN(C)C(=O)[C@H](Nc1ccc3c(N)ncc(F)c3c1)c1ccc(c(C)c1)[C@@H](C)COC(=O)N2.O=C(O)C(F)(F)F [Example 6, (2R,15R)-2-[(1-Amino-4-fluoroisoquinolin-6-yl)amino]-7-[(2S)-1-methoxypropane-2-sulfonyl]-4,15,17-trimethyl-13-oxa-4,11-diazatricyclo[14.2.2.1^6,10]henicosa-1(18),6,8,10 (21),16,19-hexaene-3,12-dione; trifluoroacetic acid] | 1.8 nM | 306 | 550 nM
5 | Cc1cc2cc(C)c1CC(O)CC(=O)Nc1ccc(S(=O)(=O)C3CC3)c(c1)CN(C)C(=O)[C@@H]2Nc1ccc2c(N)ncc(F)c2c1.O=C(O)C(F)(F)F (stereo partly drawn) [Example 2, (2R)-2-[(1-Amino-4-fluoroisoquinolin-6-yl)amino]-7-(cyclopropanesulfonyl)-14-hydroxy-4,17,20-trimethyl-4,11-diazatricyclo[14.2.2.1^6,10]henicosa-1(18),6,8,10 (21),16,19-hexaene-3,12-dione; trifluoroacetic acid] | 2.3 nM | 704 | 1620 nM
6 | CCS(=O)(=O)c1ccc2cc1CNC(=O)[C@H](Nc1ccc3c(N)nccc3c1)c1cc(C)c(c(C)c1)CCOC(=O)N2 [Comparator 3, reference compound] | 1.1 nM | 64 | 70 nM
7 | Cc1cc2ccc1[C@@H](C)COC(=O)Nc1ccc(C(=O)N3CCC3)c(c1)CN(C)C(=O)[C@@H]2Nc1ccc2c(N)nccc2c1.O=C(O)C(F)(F)F [Example 7, (2R,15R)-2-[(1-Aminoisoquinolin-6-yl)amino]-7-(azetidine-1-carbonyl)-4,15,17-trimethyl-13-oxa-4,11-diazatricyclo[14.2.2.16,10]henicosa-1(18),6,8,10 (21),16,19-hexaene-3,12-dione; trifluoroacetic acid] | 1.2 nM | 525 | 630 nM
8 | CC[C@@H](C(=O)O)c1ccc2cc1CN(C)C(=O)[C@H](Nc1ccc3c(N)ncc(F)c3c1)c1ccc(c(C)c1)[C@@H](C)COC(=O)N2.O=C(O)C(F)(F)F [Example 13, (2R)-2-[(2R,15R)-2-[(1-Amino-4-fluoroisoquinolin-6-yl)amino]-4,15,17-trimethyl-3,12-dioxo-13-oxa-4,11-diazatricyclo[14.2.2.1^6,10]henicosa-1(18),6,8,10 (21),16,19-hexaen-7-yl]butanoic acid; trifluoroacetic acid] | 0.61 nM | 623 | 380 nM

Compounds with a lower Ki (human FVIIa), results first:

Row | Ki (human FVIIa) | Ki(HK1)/Ki(FVIIa) (human FVIIa) | Ki (tissue kallikrein (HK1)) | Compound
9 | 0.5 nM | 360 | 180 nM | Cc1cc2ccc1[C@@H](C(F)F)COC(=O)Nc1ccc(S(=O)(=O)C3CC3)c(c1)CN(C)C(=O)[C@@H]2Nc1ccc2c(N)nccc2c1.O=C(O)C(F)(F)F [Example 16, (2R,15R)-2-[(1-Aminoisoquinolin-6-yl)amino]-7-(cyclopropanesulfonyl)-15-(difluoromethyl)-4,17-dimethyl-13-oxa-4,11-diazatricyclo[14.2.2.1^6,10]henicosa-1(18),6,8,10 (21),16,19-hexaene-3,12-dione; trifluoroacetic acid]
10 | 0.36 nM | 333 | 120 nM | Cc1cc2ccc1[C@@H](C)COC(=O)Nc1cc(F)c(S(=O)(=O)C(C)C)c(c1)CN(C)C(=O)[C@@H]2Nc1cc(F)c2c(N)nccc2c1.O=C(O)C(F)(F)F [Example 20, (2R,15R)-2-[(1-Amino-8-fluoroisoquinolin-6-yl)amino]-8-fluoro-4,15,17-trimethyl-7-(propane-2-sulfonyl)-13-oxa-4,11-diazatricyclo[14.2.2.1^6,10]henicosa-1(18),6,8,10 (21),16,19-hexaene-3,12-dione; trifluoroacetic acid]
11 | 0.31 nM | 2516 | 780 nM | Cc1cc2ccc1[C@@H](C)COC(=O)Nc1ccc(S(=O)(=O)C(C)(C)C)c(c1)CN(C)C(=O)[C@@H]2Nc1ccc2c(N)nccc2c1.O=C(O)C(F)(F)F (stereo in doubt) [Example 22, (15R)-2-[(1-Aminoisoquinolin-6-yl)amino]-4,15,17-trimethyl-7-(2-methylpropane-2-sulfonyl)-13-oxa-4,11-diazatricyclo[14.2.2.1^6,10]henicosa-1(18),6,8,10 (21),16,19-hexaene-3,12-dione; trifluoroacetic acid]
12 | 0.3 nM | 1100 | 330 nM | CCN(Cc1nccs1)C(=O)c1ccc2cc1CN(C)C(=O)[C@H](Nc1ccc3c(N)nccc3c1)c1ccc(c(C)c1)[C@@H](C)COC(=O)N2.O=C(O)C(F)(F)F [Example 23, (2R,15R)-2-[(1-Aminoisoquinolin-6-yl)amino]-N-ethyl-4,15,17-trimethyl-3,12-dioxo-N-(1,3-thiazol-2-ylmethyl)-13-oxa-4,11-diazatricyclo[14.2.2.1^6,10]henicosa-1(18),6,8,10 (21),16,19-hexaene-7-carboxamide; trifluoroacetic acid]
13 | 0.17 nM | 412 | 70 nM | Cc1cc2ccc1[C@@H](C)COC(=O)Nc1cc(F)c(O[C@H](C)CO)c(c1)CN(C)C(=O)[C@@H]2Nc1ccc2c(N)nccc2c1.O=C(O)C(F)(F)F [Example 30, (2R,15R)-2-[(1-Aminoisoquinolin-6-yl)amino]-8-fluoro-7-{[(2R)-1-hydroxypropan-2-yl]oxy}-4,15,20-trimethyl-13-oxa-4,11-diazatricyclo[14.2.2.16,10]henicosa-1(18),6,8,10 (21),16,19-hexaene-3,12-dione; trifluoroacetic acid]
14 | 0.15 nM | 273 | 41 nM | Cc1cc2ccc1[C@@H](C)COC(=O)Nc1cc(F)c(OC(CF)CF)c(c1)CN(C)C(=O)[C@@H]2Nc1ccc2c(N)nccc2c1.O=C(O)C(F)(F)F [Example 32, (2R,15R)-2-[(1-Aminoisoquinolin-6-yl)amino]-7-[(1,3-difluoropropan-2-yl)oxy]-8-fluoro-4,15,20-trimethyl-13-oxa-4,11-diazatricyclo[14.2.2.1^6,10]henicosa-1(18),6,8,10 (21),16,19-hexaene-3,12-dione; trifluoroacetic acid]
15 | 0.14 nM | 1357 | 190 nM | COC[C@H](C)Oc1c(F)cc2cc1CN(C)C(=O)[C@H](Nc1ccc3c(N)nccc3c1)c1ccc(c(C)c1)[C@@H](C)COC(=O)N2.O=C(O)C(F)(F)F [Example 37, (2R,15R)-2-[(1-Aminoisoquinolin-6-yl)amino]-8-fluoro-7-{[(2S)-1-methoxypropan-2-yl]oxy}-4,15,20-trimethyl-13-oxa-4,11-diazatricyclo[14.2.2.1^6,10]henicosa-1(18),6,8,10 (21),16,19-hexaene-3,12-dione; trifluoroacetic acid]
16 | 0.14 nM | 15000 | 2100 nM | Cc1cc2ccc1[C@@H](C)COC(=O)Nc1cc(F)c(S(=O)(=O)C(C)C)c(c1)CN(C)C(=O)[C@@H]2Nc1cc2ccnc(N)c2cc1F.O=C(O)C(F)(F)F [Example 34, (2R,15R)-2-[(1-Amino-7-fluoroisoquinolin-6-yl)amino]-8-fluoro-4,15,17-trimethyl-7-(propane-2-sulfonyl)-13-oxa-4,11-diazatricyclo[14.2.2.1^6,10]henicosa-1(18),6,8,10 (21),16,19-hexaene-3,12-dione; trifluoroacetic acid]
17 | 0.05 nM | 5800 | 290 nM | Cc1cc2ccc1[C@@H](C)COC(=O)Nc1cc(F)c(O[C@@H]3CCOC3)c(c1)CN(C)C(=O)[C@@H]2Nc1ccc2c(N)nccc2c1.O=C(O)C(F)(F)F [Example 38, (2R,15R)-2-[(1-Aminoisoquinolin-6-yl)amino]-8-fluoro-4,15,20-trimethyl-7-[(3R)-oxolan-3-yloxy]-13-oxa-4,11-diazatricyclo[14.2.2.1^6,10]henicosa-1(18),6,8,10 (21),16,19-hexaene-3,12-dione; trifluoroacetic acid]
